This passage reports IC50 and EC50 results from paper PMC5972579 (Brain, 2018).

In experiment [1] the target is T1, GPR52 (Homo sapiens, UniProt Q9Y2T5). The experiment is described as follows: inhibition of WO-[…])-stimulated cAMP. In kind it is cell-based.
In experiment [2] the target is T1, GPR52. In words: intracellular cAMP HTRF assay. In kind it is cell-based.

T1 sequence (Q9Y2T5 whole entry): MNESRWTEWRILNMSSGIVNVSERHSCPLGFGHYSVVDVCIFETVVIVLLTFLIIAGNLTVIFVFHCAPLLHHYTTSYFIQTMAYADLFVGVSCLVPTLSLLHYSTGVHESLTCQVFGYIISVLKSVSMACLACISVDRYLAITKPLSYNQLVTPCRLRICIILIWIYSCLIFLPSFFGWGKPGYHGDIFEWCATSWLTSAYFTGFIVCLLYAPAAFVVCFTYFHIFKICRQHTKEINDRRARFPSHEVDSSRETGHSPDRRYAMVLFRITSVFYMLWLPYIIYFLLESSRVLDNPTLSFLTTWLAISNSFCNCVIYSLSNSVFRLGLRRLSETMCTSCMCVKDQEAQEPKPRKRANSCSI

Compound `C=C1C(=O)O[C@@H]2/C=C(\C)CC3C=C(C[C@H](OC(=O)/C(C)=C\C)[C@@H]12)C(=O)O3` (mixture of isomers) [E7, (3S,4R,8R,9E)-10-methyl-5-methylidene-6,14-dioxo-7,13-dioxatricyclo[10.2.1.0⁴,⁸]pentadeca-1(15),9-dien-3-yl (2Z)-2-methylbut-2-enoate] gave a half-inhibitory concentration (IC50) against GPR52 [1] of 12 ± 0.7 µM.

Take `Cc1nn(-c2cccc3cc(Cc4cccc(C(F)(F)F)c4)sc23)cc1C(=O)NCCO` [WO-459, N-(2-hydroxyethyl)-3-methyl-1-[2-[3-(trifluoromethyl)benzyl]benzothiophen-7-yl]-1H-pyrazole-4-carboxamide]: the EC50 at GPR52 [2] worked out at 0.006 ± 0.0007 µM.

Usually IC50 stands for the midpoint of a concentration-inhibition curve. The low end stands for greater potency, the high end for weaker potency. For orientation: EC50 means the concentration that produces a half-maximal response. Low readings indicate greater potency, high ones weaker potency.
